We go through 7 compounds from patent publication US10214533B2, “N-acyl-(3-substituted)-5,6,7,8-tetrahydro-[1,2,4]triazolo[4,3-a]pyrazines as selective NK-3 receptor antagonists, pharmaceutical composition, methods for use in NK-3 receptor-mediated disorders” (OGEDA SA, priority 2013, dated 2019).

Molecules are shown by their SMILES.

The subject of one series is plasma protein. The series can be described thus: Determination of plasma protein binding (rapid equilibrium dialysis). Format: in vitro ADME. The settings on record: 4 hours at 37° C. How it is done: The determination of plasma protein binding (PPB) of a compound is enabled by equilibrium dialysis, an accepted and standard method for reliable estimation of the non-bound drug fraction in plasma. RED (Rapid Equilibrium Dialysis) device insert is made of two side-by-side chambers separated by an O-ring-sealed vertical cylinder of dialysis membrane (MWCO ˜8,000). […] After 4 hours incubation at 37° C. under shaking, an aliquot is removed from each chamber and analyzed by a LC-MS/MS procedure enables the determination of both free and bound drug.
The “free fraction” may be calculated as 100%−% rPPB (i.e. the complementary percentage of that disclosed in Table 4, corresponding to the drug concentration that is unbound and therefore available to engage biological target and elicit pharmacological activity).
In general terms: In equilibrium dialysis free small molecules cross a membrane that holds back macromolecules.
Take `Cc1nsc(-c2nnc3n2CCN(C(=O)c2ccc(Cl)cc2)C3)n1` [Compound 2, (4-chlorophenyl)(3-(3-methyl-1,2,4-thiadiazol-5-yl)-5,6-dihydro-[1,2,4]triazolo[4,3-a]pyrazin-7(8H)-yl)methanone]: the “Exposure (% rPPB), bound drug fraction to the plasma protein” value (“Exposure (% rPPB), bound drug fraction” for short) amounted to 49%.

Consider `Cc1nsc(-c2nnc3n2CCN(C(=O)c2ccc(Cl)c(F)c2)C3)n1` [Compound 3, (4-chloro-3-fluorophenyl)(3-(3-methyl-1,2,4-thiadiazol-5-yl)-5,6-dihydro-[1,2,4]triazolo[4,3-a]pyrazin-7(8H)-yl)methanone], for which the “Exposure (% rPPB), bound drug fraction” value was determined as 54%.

With `Cc1nsc(-c2nnc3n2CCN(C(=O)c2ccc(F)c(Cl)c2)C3)n1` [Compound 4, (3-chloro-4-fluorophenyl)(3-(3-methyl-1,2,4-thiadiazol-5-yl)-5,6-dihydro-[1,2,4]triazolo[4,3-a]pyrazin-7(8H)-yl)methanone], the “Exposure (% rPPB), bound drug fraction” value was determined as 52%.

As for `Cc1nsc(-c2nnc3n2CCN(C(=O)c2ccc(F)c(F)c2)C3)n1` [Compound 5, (3,4-difluorophenyl)(3-(3-methyl-1,2,4-thiadiazol-5-yl)-5,6-dihydro-[1,2,4]triazolo[4,3-a]pyrazin-7(8H)-yl)methanone], the “Exposure (% rPPB), bound drug fraction” value amounted to 28%.

As for `Cc1nsc(-c2nnc3n2CCN(C(=O)c2cc(F)c(F)c(F)c2)C3)n1` [Compound 6, (3-(3-methyl-1,2,4-thiadiazol-5-yl)-5,6-dihydro-[1,2,4]triazolo[4,3-a]pyrazin-7(8H)-yl)(3,4,5-trifluorophenyl)methanone], the “Exposure (% rPPB), bound drug fraction” value is on record as 27%.

In the case of `Cc1nsc(-c2nnc3n2CCN(C(=O)c2ccc(F)c(F)c2F)C3)n1` [Compound 7, (3-(3-methyl-1,2,4-thiadiazol-5-yl)-5,6-dihydro-[1,2,4]triazolo[4,3-a]pyrazin-7(8H)-yl)(2,3,4-trifluorophenyl)methanone], the “Exposure (% rPPB), bound drug fraction” value is given as 25%.

For the next series, the system named is circulating LH levels. The series can be described thus: Castrated male rat model, circulating luteinizing hormone (LH) levels, oral dosing. Format: in vivo. The settings on record: castrated male SD rat, single oral dose less than or equal to 30 mg/kg, p<0.05. How it is done:
The effect of compounds of the invention to inhibit luteinizing hormone (LH) secretion is determined by the following biological studies. In humans and rodents, castration is well-precedented to permit heightened, persistent GnRH signaling and consequent elevation of circulating LH. Thus, a castrated rat model is used to provide a broad index for measurement of LH inhibition as a marker of test compound inhibition of the GnRH signaling pathway. Castrated adult male Sprague-Dawley (SD) rats (150-175 g) were purchased from Janvier (St Berthevin, France). All animals were housed 2 per cage in a temperature-controlled room (22±2° C.) and 50±5% relative humidity with a 12 hour/12 hour light/dark cycles (lights off at 6 h00 pm). The animals were allowed 3 weeks of postoperative recovery prior to study. Animals were handled on a daily basis. Standard diet and tap water were provided ad libitum. Animal cage litters were changed once a week. On the study day, animals were acclimated to the procedure room for a period of one hour prior to the initiation of the experiment. Compounds of the invention were formulated in 0.5% methyl cellulose. After basal sampling (TO) a single dose of compounds of the invention or vehicle was administrated orally to rats. […] Serum LH levels were determined using radioimmunoassay kit from RIAZEN—Rat LH, Zentech (Liège, Belgium). […]
In the case of `Cc1nsc(-c2nnc3n2CCN(C(=O)c2ccc(F)cc2)C3)n1` [Compound 1, (4-fluorophenyl)(3-(3-methyl-1,2,4-thiadiazol-5-yl)-5,6-dihydro-[1,2,4]triazolo[4,3-a]pyrazin-7(8H)-yl)methanone], the “Suppression of circulating LH levels” value is given as “significantly suppressed circulating LH levels”.
